Each block holds one compound with its values, some of them ahead of it.
What was measured:
[1] = molecular target: T1, Prostaglandin G/H synthase 1 (Ovis aries, UniProt P05979); assay: Inhibition of ovine COX1 by colorimetric analysis
T1 sequence (P05979 whole entry): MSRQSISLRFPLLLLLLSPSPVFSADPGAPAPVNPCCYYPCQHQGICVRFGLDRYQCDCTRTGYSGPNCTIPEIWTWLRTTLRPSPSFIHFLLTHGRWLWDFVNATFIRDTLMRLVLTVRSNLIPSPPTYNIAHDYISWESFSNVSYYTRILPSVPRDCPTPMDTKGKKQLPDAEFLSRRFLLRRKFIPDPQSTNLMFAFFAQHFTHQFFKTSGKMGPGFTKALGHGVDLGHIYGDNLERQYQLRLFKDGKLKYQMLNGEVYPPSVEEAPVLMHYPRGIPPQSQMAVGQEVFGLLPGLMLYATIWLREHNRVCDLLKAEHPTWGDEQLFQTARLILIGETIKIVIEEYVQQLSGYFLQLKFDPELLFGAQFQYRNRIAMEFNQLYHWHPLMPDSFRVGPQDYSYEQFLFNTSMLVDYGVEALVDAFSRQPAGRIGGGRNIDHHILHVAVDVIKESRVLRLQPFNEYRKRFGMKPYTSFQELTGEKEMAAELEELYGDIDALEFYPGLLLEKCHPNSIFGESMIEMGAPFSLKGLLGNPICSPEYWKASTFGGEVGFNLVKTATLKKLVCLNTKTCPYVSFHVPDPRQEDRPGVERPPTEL

[2] = Inhibition of soya bean 15-LOX; parameters: species or system Glycine max
Carbonic anhydrase 1 = Carbonic anhydrase 1 (Homo sapiens, UniProt P00915); assay: Inhibition of human CA1 by stopped-flow carbon dioxide hydration assay
Carbonic anhydrase 2 = Carbonic anhydrase 2 (Homo sapiens, UniProt P00918); assay: Inhibition of human CA2 by stopped-flow carbon dioxide hydration assay
Carbonic anhydrase 9 = Carbonic anhydrase 9 (Homo sapiens, UniProt Q16790); assay: Inhibition of human CA9 by stopped-flow carbon dioxide hydration assay
Carbonic anhydrase 12 = Carbonic anhydrase 12 (Homo sapiens, UniProt O43570); assay: Inhibition of human CA12 by stopped-flow carbon dioxide hydration assay
WI-38 = assay: Cytotoxicity against human WI-38 cells assessed as reduction in cell viability after 72 hrs by SRB assay; format: cell-based; details: WI-38, 72 h
A549 [3] = assay: Antiproliferative activity against human A549 cells assessed as inhibition of cell growth at 100 microM measured after 72 hrs by SRB assay; format: functional
HepG2 [4] = assay: Antiproliferative activity against human HepG2 cells assessed as inhibition of cell growth at 100 microM measured after 72 hrs by SRB assay; format: functional
MCF7 [5] = assay: Antiproliferative activity against human MCF-7 cells assessed as inhibition of cell growth at 100 microM measured after 72 hrs by SRB assay; format: functional
A549 [6] = assay: Antiproliferative activity against human A549 cells assessed as cell growth inhibition measured after 72 hrs by SRB assay; format: functional, cell-based; details: A549, 72 h
HepG2 [7] = assay: Antiproliferative activity against human HepG2 cells assessed as cell growth inhibition measured after 72 hrs by SRB assay; format: functional, cell-based; details: HepG2, 72 h
MCF7 [8] = assay: Antiproliferative activity against human MCF-7 cells assessed as cell growth inhibition measured after 72 hrs by SRB assay; format: functional, cell-based; details: MCF7, 72 h
MCF7 [9] = assay: Induction of apoptosis in human MCF-7 cells assessed as early apoptotic cells at IC50 measured after 24 hrs by Annexin V-FITC/propidium iodide staining based flow cytometry (reference value: 0.4%); format: functional
MCF7 [10] = assay: Induction of apoptosis in human MCF-7 cells assessed as late apoptotic cells at IC50 measured after 24 hrs by Annexin V-FITC/propidium iodide staining based flow cytometry (reference value: […]); format: functional
MCF7 [11] = assay: Induction of apoptosis in human MCF-7 cells assessed as necrotic cells at IC50 measured after 24 hrs by Annexin V-FITC/propidium iodide staining based flow cytometry (reference value: 1.27%); format: functional
MCF7 [12] = assay: Induction of apoptosis in human MCF7 cells assessed as caspase-9 expression at IC50 by ELISA (reference value: 1.77 +/- 0.1 ng/ml); format: functional
MCF7 [13] = assay: Induction of apoptosis in human MCF7 cells assessed as fold change in caspase-9 expression at IC50 by ELISA relative to control; format: functional
MCF7 [14] = assay: Induction of apoptosis in human MCF7 cells assessed as Bax expression at IC50 by ELISA (reference value: 45.46 +/- 3.6 pg/ml); format: functional
MCF7 [15] = assay: Induction of apoptosis in human MCF7 cells assessed as fold change in Bax expression at IC50 by ELISA relative to control; format: functional
MCF7 [16] = assay: Induction of apoptosis in human MCF7 cells assessed as Bcl-2 expression at IC50 by ELISA (reference value: 7.49 +/- 0.1 ng/ml); format: functional
MCF7 [17] = assay: Induction of apoptosis in human MCF7 cells assessed as fold change in Bcl-2 expression at IC50 by ELISA relative to control; format: functional
HT-29 = assay: Cytotoxicity against human HT-29 cells assessed as reduction in cell viability incubated for 24 hrs by MTS assay; format: functional, cell-based; details: HT-29, 24 h
THP-1 = assay: Cytotoxicity against PMA/LPS-challenged human THP1 cells assessed as reduction in cell viability incubated for 24 hrs by MTS assay; format: functional, cell-based; details: THP-1, 24 h
MCF7 [18] = assay: Induction of cell cycle arrest in human MCF7 cells assessed as accumulation at pre-G1 phase at IC50 measured after 24 hrs by propidium iodide/RNase staining based flow cytometry (reference value: 1.96%); format: functional
MCF7 [19] = assay: Induction of cell cycle arrest in human MCF7 cells assessed as accumulation at G0/G1 phase at IC50 measured after 24 hrs by propidium iodide/RNase staining based flow cytometry (reference value: 51.72%); format: functional
MCF7 [20] = assay: Induction of cell cycle arrest in human MCF7 cells assessed as accumulation at G2/M phase at IC50 measured after 24 hrs by propidium iodide/RNase staining based flow cytometry (reference value: 18.4%); format: functional
MCF7 [21] = assay: Induction of cell cycle arrest in human MCF7 cells assessed as accumulation at S phase at IC50 measured after 24 hrs by propidium iodide/RNase staining based flow cytometry (reference value: 29.88%); format: functional
MCF7 [22] = assay: Induction of cell cycle arrest in human MCF7 cells assessed as reduction in accumulation at G0/G1 phase at IC50 measured after 24 hrs by propidium iodide/RNase staining based flow cytometry relative to control; format: functional
MCF7 [23] = assay: Induction of cell cycle arrest in human MCF7 cells assessed as increase in accumulation at G2/M phase at IC50 measured after 24 hrs by propidium iodide/RNase staining based flow cytometry relative to control; format: functional
MCF7 [24] = assay: Induction of cell cycle arrest in human MCF7 cells assessed as increase in accumulation at pre-G1 phase at IC50 measured after 24 hrs by propidium iodide/RNase staining based flow cytometry relative to control; format: functional
MCF7 [25] = assay: Induction of apoptosis in human MCF-7 cells assessed as total apoptotic cells at IC50 measured after 24 hrs by Annexin V-FITC/propidium iodide staining based flow cytometry (reference value: 0.69%); format: functional
MCF7 [26] = assay: Induction of apoptosis in human MCF-7 cells assessed as increase in total apoptotic cells at IC50 measured after 24 hrs by Annexin V-FITC/propidium iodide staining based flow cytometry relative to 5-FU; format: functional
[27] = Toxicity in ip dosed BALB/c mouse measured for 3 days; format: organism-based; details: in vivo, time 3 day
MCF7 [28] = assay: Antitumor activity against human MCF7 cells xenografted in BALB/c mouse assessed as reduction in tumor volume at 23 mg/kg, ip administered thrice a week for 28 days by vernier caliper analysis; format: functional; details: time 28 day
[29] = Toxicity in BALB/c mouse xenografted with human MCF7 cells assessed as body weight at 23 mg/kg, ip administered thrice a week for 28 days measured on day 28 (reference value: 29.8 gms); format: organism-based; details: in vivo, 672 h, time 28 day
MCF7 [30] = assay: Antiproliferative activity against human MCF-7 cells assessed as inhibition of cell growth at 100 microM measured after 72 hrs by SRB assay relative to celecoxib; format: functional; parameters: scale not given: the % may be the effect or the level left

Carbonic anhydrase 12, sequence (O43570 whole entry): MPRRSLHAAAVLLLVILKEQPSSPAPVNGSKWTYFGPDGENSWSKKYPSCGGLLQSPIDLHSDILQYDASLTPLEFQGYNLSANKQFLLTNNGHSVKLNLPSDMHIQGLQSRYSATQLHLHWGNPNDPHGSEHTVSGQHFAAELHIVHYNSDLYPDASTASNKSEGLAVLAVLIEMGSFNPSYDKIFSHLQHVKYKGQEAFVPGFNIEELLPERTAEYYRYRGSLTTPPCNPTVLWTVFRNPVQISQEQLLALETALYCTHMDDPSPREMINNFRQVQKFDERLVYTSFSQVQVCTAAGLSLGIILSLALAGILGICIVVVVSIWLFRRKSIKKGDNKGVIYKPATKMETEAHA
Carbonic anhydrase 1, sequence (P00915 whole entry): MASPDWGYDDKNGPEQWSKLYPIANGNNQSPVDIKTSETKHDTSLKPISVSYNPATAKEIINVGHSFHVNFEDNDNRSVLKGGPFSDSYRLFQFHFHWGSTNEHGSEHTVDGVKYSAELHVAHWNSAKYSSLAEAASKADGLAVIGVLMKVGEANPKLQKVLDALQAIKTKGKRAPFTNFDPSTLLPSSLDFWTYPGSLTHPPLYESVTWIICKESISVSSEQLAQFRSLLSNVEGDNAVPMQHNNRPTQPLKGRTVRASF

IC50 [1]: 11.9 µM
IC50 [2]: 1.68 µM
Ki (Carbonic anhydrase 1): > 100 µM
Ki (Carbonic anhydrase 2): > 100 µM
Ki (Carbonic anhydrase 9): > 100 µM
Ki (Carbonic anhydrase 12): > 100 µM
IC50 (A549 [6]): 8.9 µM
IC50 (HepG2 [7]): 2.37 µM
IC50 (MCF7 [8]): 2.69 µM
Structure (SMILES): C/C(=N\Nc1nc(-c2ccc(Cl)cc2)cs1)c1nnn(-c2ccc(Cl)cc2)c1C
IC50 (WI-38): 379 µM
inhibition at 100 µM (A549 [3]): 77.5%
inhibition at 100 µM (HepG2 [4]): 74.4%
inhibition at 100 µM (MCF7 [5]): 91.3%
Activity (MCF7 [9]): 5.88%
Activity (MCF7 [10]): 11.29%
Activity (MCF7 [11]): 2.19%
Activity (MCF7 [12]): 13.02 ng/mL
fold change (FC) (MCF7 [13]): 7.36
Activity (MCF7 [14]): 227.2 pg/mL
fold change (FC) (MCF7 [15]): 4.99
Activity (MCF7 [16]): 4.02 ng/mL
fold change (FC) (MCF7 [17]): 0.54
IC50 (HT-29): 36.5 µM
IC50 (THP-1): 133 µM
Activity (MCF7 [18]): 19.36%
Activity (MCF7 [19]): 36.41%
Activity (MCF7 [20]): 38.7%
Activity (MCF7 [21]): 24.89%
fold change (FC) (MCF7 [22]): 1.4
fold change (FC) (MCF7 [23]): 2.1
fold change (FC) (MCF7 [24]): 9.9
Activity (MCF7 [25]): 17.17%
Activity (MCF7 [26]): 70%

Structure (SMILES): Cc1c(-c2nn(-c3ccccc3)cc2/C=N/O)nnn1-c1ccc(C(=O)O)cc1
IC50 [1]: 12.4 µM
IC50 [2]: 1.29 µM
Ki (Carbonic anhydrase 1): 4.63 µM
Ki (Carbonic anhydrase 2): 0.239 µM
Ki (Carbonic anhydrase 9): 2.25 µM
Ki (Carbonic anhydrase 12): 0.154 µM
IC50 (WI-38): 379 µM
inhibition at 100 µM (A549 [3]): 12.3%
inhibition at 100 µM (HepG2 [4]): 7.68%
inhibition at 100 µM (MCF7 [5]): 83.4%
IC50 (MCF7 [8]): 3.2 µM
LD50 at 72 h [27]: 61.7 mg/kg
Activity (MCF7 [28]): 0.45 cm3
Activity [29]: 27.3 g
Activity (MCF7 [30]): 80%
